From ChEMBL document CHEMBL4422665, “Design, synthesis and algicides activities of thiourea derivatives as the novel scaffold aldolase inhibitors” (Bioorg Med Chem, 2019)
Converted amounts (≈) assume the structure as drawn.

Assays:
[1] = system: Synechocystis sp. PCC 6803; assay: Algicidal activity against wild-type Synechocystis sp. PCC 6803 after 24 hrs by microbroth dilution method; assay type: functional, organism-based
[2] = target: T1, Fructose-bisphosphate aldolase class 2 (Synechocystis sp. (strain PCC 6803 / Kazusa), UniProt Q55664); assay: (§1) Inhibition of recombinant Synechocystis sp. PCC 6803 FBA2 expressed in Escherichia coli BL21 (DE3) using FBP as substrate measured over 5 mins
T1 sequence (Q55664 whole entry): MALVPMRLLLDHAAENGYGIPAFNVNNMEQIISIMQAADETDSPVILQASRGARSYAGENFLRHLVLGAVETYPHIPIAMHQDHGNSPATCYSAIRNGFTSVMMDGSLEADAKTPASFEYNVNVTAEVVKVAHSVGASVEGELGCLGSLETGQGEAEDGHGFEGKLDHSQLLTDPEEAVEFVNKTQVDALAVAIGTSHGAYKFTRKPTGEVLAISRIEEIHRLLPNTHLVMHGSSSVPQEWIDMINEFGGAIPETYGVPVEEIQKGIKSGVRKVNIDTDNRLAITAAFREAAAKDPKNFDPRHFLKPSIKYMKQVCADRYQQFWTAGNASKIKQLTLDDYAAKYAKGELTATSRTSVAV

[3] = target: Fructose-bisphosphate aldolase class 2 (Synechocystis sp. (strain PCC 6803 / Kazusa), UniProt Q55664, S55A); assay: Inhibition of recombinant Synechocystis sp. PCC 6803 FBA2 S55A mutant expressed in Escherichia coli BL21 (DE3) using FBP as substrate measured over 5 mins
[4] = system: Synechocystis sp. PCC 6803; assay: Selectivity ratio of Ki for recombinant Synechocystis sp. PCC 6803 FBA2 R281A mutant expressed in Escherichia coli BL21 (DE3) to Ki for recombinant Synechocystis sp. PCC 6803 FBA2 expressed in Escherichia coli BL21 (DE3)
[5] = target: Fructose-bisphosphate aldolase class 2 (Synechocystis sp. (strain PCC 6803 / Kazusa), UniProt Q55664, R51A); assay: Inhibition of recombinant Synechocystis sp. PCC 6803 FBA2 R51A mutant expressed in Escherichia coli BL21 (DE3) using FBP as substrate measured over 5 mins
[6] = target: Fructose-bisphosphate aldolase class 2 (Synechocystis sp. (strain PCC 6803 / Kazusa), UniProt Q55664, T278A); assay: Inhibition of recombinant Synechocystis sp. PCC 6803 FBA2 T278A mutant expressed in Escherichia coli BL21 (DE3) using FBP as substrate measured over 5 mins
[7] = system: Synechocystis sp. PCC 6803; assay: Selectivity ratio of Ki for recombinant Synechocystis sp. PCC 6803 FBA2 R51A mutant expressed in Escherichia coli BL21 (DE3) to Ki for recombinant Synechocystis sp. PCC 6803 FBA2 expressed in Escherichia coli BL21 (DE3)
[8] = system: Synechocystis sp. PCC 6803; assay: Selectivity ratio of Ki for recombinant Synechocystis sp. PCC 6803 FBA2 R302A mutant expressed in Escherichia coli BL21 (DE3) to Ki for recombinant Synechocystis sp. PCC 6803 FBA2 expressed in Escherichia coli BL21 (DE3)
[9] = system: Synechocystis sp. PCC 6803; assay: Selectivity ratio of Ki for recombinant Synechocystis sp. PCC 6803 FBA2 N275A mutant expressed in Escherichia coli BL21 (DE3) to Ki for recombinant Synechocystis sp. PCC 6803 FBA2 expressed in Escherichia coli BL21 (DE3)
[10] = system: Synechocystis sp. PCC 6803; assay: Selectivity ratio of Ki for recombinant Synechocystis sp. PCC 6803 FBA2 S50A mutant expressed in Escherichia coli BL21 (DE3) to Ki for recombinant Synechocystis sp. PCC 6803 FBA2 expressed in Escherichia coli BL21 (DE3)
[11] = target: Fructose-bisphosphate aldolase class 2 (Synechocystis sp. (strain PCC 6803 / Kazusa), UniProt Q55664, R302A); assay: Inhibition of recombinant Synechocystis sp. PCC 6803 FBA2 R302A mutant expressed in Escherichia coli BL21 (DE3) using FBP as substrate measured over 5 mins
[12] = target: Fructose-bisphosphate aldolase class 2 (Synechocystis sp. (strain PCC 6803 / Kazusa), UniProt Q55664, D277A); assay: Inhibition of recombinant Synechocystis sp. PCC 6803 FBA2 D277A mutant expressed in Escherichia coli BL21 (DE3) using FBP as substrate measured over 5 mins
[13] = system: Synechocystis sp. PCC 6803; assay: Selectivity ratio of Ki for recombinant Synechocystis sp. PCC 6803 FBA2 T278A mutant expressed in Escherichia coli BL21 (DE3) to Ki for recombinant Synechocystis sp. PCC 6803 FBA2 expressed in Escherichia coli BL21 (DE3)
[14] = system: Synechocystis sp. PCC 6803; assay: Selectivity ratio of Ki for recombinant Synechocystis sp. PCC 6803 FBA2 D277A mutant expressed in Escherichia coli BL21 (DE3) to Ki for recombinant Synechocystis sp. PCC 6803 FBA2 expressed in Escherichia coli BL21 (DE3)
[15] = target: Fructose-bisphosphate aldolase class 2 (Synechocystis sp. (strain PCC 6803 / Kazusa), UniProt Q55664, N275A); assay: Inhibition of recombinant Synechocystis sp. PCC 6803 FBA2 N275A mutant expressed in Escherichia coli BL21 (DE3) using FBP as substrate measured over 5 mins
[16] = target: Fructose-bisphosphate aldolase class 2 (Synechocystis sp. (strain PCC 6803 / Kazusa), UniProt Q55664, S50A); assay: Inhibition of recombinant Synechocystis sp. PCC 6803 FBA2 S50A mutant expressed in Escherichia coli BL21 (DE3) using FBP as substrate measured over 5 mins
[17] = target: Fructose-bisphosphate aldolase class 2 (Synechocystis sp. (strain PCC 6803 / Kazusa), UniProt Q55664, R281A); assay: Inhibition of recombinant Synechocystis sp. PCC 6803 FBA2 R281A mutant expressed in Escherichia coli BL21 (DE3) using FBP as substrate measured over 5 mins
[18] = system: Synechocystis sp. PCC 6803; assay: Selectivity ratio of Ki for recombinant Synechocystis sp. PCC 6803 FBA2 S55A mutant expressed in Escherichia coli BL21 (DE3) to Ki for recombinant Synechocystis sp. PCC 6803 FBA2 expressed in Escherichia coli BL21 (DE3)
[19] = Solubility of the compound; assay type: physicochemical
[20] = Lipophilicity, log P of the compound; assay type: physicochemical; conditions: octanol/water
[21] = target: T2, Fructose-bisphosphate aldolase class 2 (Synechocystis sp. (strain PCC 6803 / Kazusa)) (UniProt Q55664); assay: as §1; set-up: concentration or dose not given beside the values
T2 sequence (whole entry): T1 sequence (Q55664 whole entry)

[22] = system: Synechocystis sp. PCC 6803; assay: Algicidal activity against FBA2 over-expressing Synechocystis sp. PCC 6803 after 24 hrs by microbroth dilution method; assay type: functional, organism-based; conditions: Synechocystis sp. PCC 6803, 24 h
[23] = system: Synechocystis sp. PCC 6803; assay: Selectivity ratio of EC50 for FBA2 over-expressing Synechocystis sp. PCC 6803 to EC50 for wild-type Synechocystis sp. PCC 6803; assay type: functional
[24] = Synechocystis sp. PCC 6803, 24 h, read-out: EC50

Sequence of Fructose-bisphosphate aldolase class 2 (Synechocystis sp. (strain PCC 6803 / Kazusa), UniProt Q55664, S55A) (Q55664 2-359 S55A limits assumed): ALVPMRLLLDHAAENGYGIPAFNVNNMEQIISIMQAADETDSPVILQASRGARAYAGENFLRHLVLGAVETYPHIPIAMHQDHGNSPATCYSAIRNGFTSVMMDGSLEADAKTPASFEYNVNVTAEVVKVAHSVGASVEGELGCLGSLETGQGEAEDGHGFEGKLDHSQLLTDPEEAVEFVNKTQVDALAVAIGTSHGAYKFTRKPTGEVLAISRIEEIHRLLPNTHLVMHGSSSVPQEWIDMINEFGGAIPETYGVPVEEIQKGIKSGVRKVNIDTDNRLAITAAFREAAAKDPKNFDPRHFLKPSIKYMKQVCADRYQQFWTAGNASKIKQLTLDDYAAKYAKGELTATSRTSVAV
Sequence of Fructose-bisphosphate aldolase class 2 (Synechocystis sp. (strain PCC 6803 / Kazusa), UniProt Q55664, D277A) (Q55664 2-359 D277A limits assumed): as the sequence (Q55664 2-359 S55A limits assumed) above, with A54S, D276A counted along it
Sequence of Fructose-bisphosphate aldolase class 2 (Synechocystis sp. (strain PCC 6803 / Kazusa), UniProt Q55664, N275A) (Q55664 2-359 N275A limits assumed): as the sequence (Q55664 2-359 S55A limits assumed) above, with A54S, N274A counted along it
Sequence of Fructose-bisphosphate aldolase class 2 (Synechocystis sp. (strain PCC 6803 / Kazusa), UniProt Q55664, R302A) (Q55664 2-359 R302A limits assumed): as the sequence (Q55664 2-359 S55A limits assumed) above, with A54S, R301A counted along it
Sequence of Fructose-bisphosphate aldolase class 2 (Synechocystis sp. (strain PCC 6803 / Kazusa), UniProt Q55664, T278A) (Q55664 2-359 T278A limits assumed): as the sequence (Q55664 2-359 S55A limits assumed) above, with A54S, T277A counted along it
Sequence of Fructose-bisphosphate aldolase class 2 (Synechocystis sp. (strain PCC 6803 / Kazusa), UniProt Q55664, R51A) (Q55664 2-359 R51A limits assumed): as the sequence (Q55664 2-359 S55A limits assumed) above, with R50A, A54S counted along it
Sequence of Fructose-bisphosphate aldolase class 2 (Synechocystis sp. (strain PCC 6803 / Kazusa), UniProt Q55664, R281A) (Q55664 2-359 R281A limits assumed): as the sequence (Q55664 2-359 S55A limits assumed) above, with A54S, R280A counted along it
Sequence of Fructose-bisphosphate aldolase class 2 (Synechocystis sp. (strain PCC 6803 / Kazusa), UniProt Q55664, S50A) (Q55664 2-359 S50A limits assumed): as the sequence (Q55664 2-359 S55A limits assumed) above, with S49A, A54S counted along it

Structure (SMILES): O=C(NNC(=S)NC(=O)c1ccccc1)c1ccc([N+](=O)[O-])cc1
- EC50 [1, 24]: 2.7 µM
- Ki [2]: 2.8 µM

Structure (SMILES): O=C(NC(=S)Nc1ccc([N+](=O)[O-])cc1O)c1ccc([N+](=O)[O-])cc1
- Ki [3]: 3.4 µM
- Ratio Ki [4]: 76
- Ki [5]: 3.3 µM
- Ki [2]: 1.9 µM
- Ki [6]: 87.5 µM
- Ratio Ki [7]: 1.7
- Ratio Ki [8]: 12.9
- Ratio Ki [9]: 20
- Ratio Ki [10]: 2.1
- Ki [11]: 24.4 µM
- Ki [12]: 4.6 µM
- Ratio Ki [13]: 46.3
- Ratio Ki [14]: 2.4
- Ki [15]: 37.9 µM
- Ki [16]: 3.9 µM
- Ki [17]: 144 µM
- Ratio Ki [18]: 2.1

Structure (SMILES): Oc1cccc(COC2CC[C@@H](O)C(Cc3ccccc3)O2)c1 (stereo not given in full)
- solubility [19]: 200 µg/mL (≈ 636 µM)
- logP [20]: 3.32

Structure (SMILES): Cc1ccc(C(=O)NC(=S)Nc2ccc([N+](=O)[O-])cc2O)cc1
- Ki [2]: 5.5 µM

Structure (SMILES): O=C(NNC(=S)NC(=O)c1ccccc1)c1cccc(Br)c1
- EC50 [1]: 5.9 ppm
- Ki [2]: 3.1 µM

Structure (SMILES): O=CNC(=S)Nc1c(O)cc([N+](=O)[O-])cc1-c1ccccc1
- solubility [19]: 160 µg/mL (≈ 504 µM)
- logP [20]: 2.48

Structure (SMILES): O=C(NC(=S)NNC(=O)c1ccccc1O)c1ccc(F)cc1
- EC50 [1, 24]: 0.88 µM
- Ki [2]: 0.88 µM

Structure (SMILES): CCNCCc1ccccc1-c1ccccc1
- solubility [19]: 8350 µg/mL (≈ 37100 µM)
- logP [20]: 4

Structure (SMILES): O=C(NC(=S)Nc1cc([N+](=O)[O-])ccc1O)c1ccc(Cl)cc1
- Ki [2]: 9.1 µM

Structure (SMILES): O=C(NC(=S)Nc1ccccc1Cl)c1ccccc1
- inhibition [21]: 30%

Structure (SMILES): O=C(NC(=S)Nc1ccc([N+](=O)[O-])cc1O)c1ccccc1
- solubility [19]: 180 µg/mL (≈ 567 µM)
- logP [20]: 2.6
- Ki [2]: 16.7 µM

Structure (SMILES): O=C(NNC(=S)NC(=O)c1ccccc1)c1cccc([N+](=O)[O-])c1
- EC50 [1]: 0.39 ppm
- Ki [2]: 1.87 µM

Structure (SMILES): O=C(NC(=S)Nc1ccc([N+](=O)[O-])cc1)c1ccccc1
- inhibition [21]: 60%

Structure (SMILES): O=C(NNC(=S)NC(=O)c1ccccc1)c1ccc(Br)cc1
- EC50 [1]: 1.58 ppm
- Ki [2]: 5.2 µM

Structure (SMILES): O=C(NC(=S)NNC(=O)c1ccccc1O)c1ccccc1
- Ki [3]: 1 µM
- Ratio Ki [4]: 80.5
- Ki [5]: 3.9 µM
- EC50 [1, 24]: 0.28 µM
- Ki [2]: 0.65 to 0.7 µM
- EC50 [22]: 4.98 µM
- Ki [6]: 4.3 µM
- Ratio Ki [7]: 6
- Ratio Ki [8]: 31
- Ratio Ki [9]: 24.5
- Ratio Ki [10]: 23.4
- Ki [11]: 20.4 µM
- Ki [12]: 7.2 µM
- Ratio EC50 [23]: 18
- Ratio Ki [13]: 6.6
- Ratio Ki [14]: 11
- Ki [15]: 15.9 µM
- Ki [16]: 15.2 µM
- Ki [17]: 52.3 µM
- Ratio Ki [18]: 1.5

Structure (SMILES): O=C(NC(=S)Nc1ccccc1[N+](=O)[O-])c1ccccc1
- inhibition [21]: 15%

Structure (SMILES): O=C(NC(=S)Nc1ccccc1O)c1ccccc1
- inhibition [21]: 37%

Structure (SMILES): O=C(O)c1cccc([C@@H]2CCC[C@@H]2c2ncc3nc[nH]c3n2)c1
- solubility [19]: 13100 µg/mL (≈ 42600 µM)
- logP [20]: 2.96

Structure (SMILES): N[C@@H](Cc1ccc(O)cc1-c1ccccc1)c1ccccc1O
- solubility [19]: 6350 µg/mL (≈ 20800 µM)
- logP [20]: 3.23

Structure (SMILES): O[C@@H]1CC[C@@](O)(n2c(-c3ccccc3)nc3ncncc32)OC1
- solubility [19]: 730 µg/mL (≈ 2340 µM)
- logP [20]: 0.94

Structure (SMILES): c1ccc(-n2c(-n3cnc4ncncc43)nc3cncnc32)cc1
- solubility [19]: 290 µg/mL (≈ 923 µM)
- logP [20]: 0.99

Structure (SMILES): O[C@H]1CO[C@@H](O)C(c2nc3ncncc3n2-c2ccccc2)C1 (stereo not given in full)
- solubility [19]: 440 µg/mL (≈ 1410 µM)
- logP [20]: 0.82

Structure (SMILES): O=C(NC(=S)Nc1ccc(Br)cc1)c1ccccc1
- inhibition [21]: 42%

Structure (SMILES): O=C(NC(=S)Nc1ccc([N+](=O)[O-])cc1O)c1ccc(-c2ccccc2)cc1
- Ki [2]: 2.5 µM

Structure (SMILES): O=C(NC(=S)Nc1cc([N+](=O)[O-])ccc1O)c1ccccc1
- Ki [2]: 9.1 µM

Structure (SMILES): O=CNC(=S)Nc1cc(-c2ccccc2)c([N+](=O)[O-])cc1O
- solubility [19]: 160 µg/mL (≈ 504 µM)
- logP [20]: 2.45

Structure (SMILES): O=C(NC(=S)NNC(=O)c1ccc(O)cc1O)c1ccccc1
- EC50 [1, 24]: 1.25 µM
- Ki [2]: 1.25 µM

Structure (SMILES): O=C(NC(=S)Nc1ccc([N+](=O)[O-])cc1O)c1ccc(C(F)(F)F)cc1
- Ki [2]: 5.5 µM

Structure (SMILES): O=C(NC(=S)Nc1ccc(O)cc1)c1ccccc1
- inhibition [21]: 22%

Structure (SMILES): O=C(NNC(=S)NC(=O)c1ccccc1)c1ccc(F)cc1
- EC50 [1]: 8.2 ppm
- Ki [2]: 3.5 µM

Structure (SMILES): O=C(NC(=S)NNC(=O)c1ccccc1O)c1ccc(Cl)cc1
- EC50 [1]: 0.98 ppm
- Ki [2]: 0.63 µM
